Measurements from EP2987533B1, “7-substituted piperazin-1-yl fluoroquinolone compounds, their use in the treatment of cancer, pharmaceutical compositions and a method for preparation” (priority 2014, dated 2016).

How the values were obtained:
[1] = tested on: 786-0; experiment: NCI one-dose SRB growth assay; type: cell-based; settings: Homo sapiens; 786-0 (Renal Cancer), 10^-5 M, 48 h; read-out: % Growth Inhibition (GI %)
Summary of the method: (§1)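 Screening used the NCI Drug Evaluation Branch protocol on roughly 60 human cancer cell lines. Compound exposure: 10^-5M, 48 h. Cell mass quantified by sulforhodamine B binding, read by spectrophotometer, reported as % growth compared with untreated control.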

[2] = tested on: ACHN; experiment: NCI one-dose SRB growth assay; type: cell-based; settings: Homo sapiens; ACHN (Renal Cancer), 10^-5 M, 48 h; read-out: % Growth Inhibition (GI %)
Summary of the method: as §1

[3] = tested on: CAKI-1; experiment: NCI one-dose SRB growth assay; type: cell-based; settings: Homo sapiens; CAKI-1 (Renal Cancer), 10^-5 M, 48 h; read-out: % Growth Inhibition (GI %)
Summary of the method: as §1

[4] = tested on: HCC-2998; experiment: NCI one-dose SRB growth assay; type: cell-based; settings: Homo sapiens; HCC-2998 (Colon Cancer), 10^-5 M, 48 h; read-out: % Growth Inhibition (GI %)
Summary of the method: as §1

[5] = tested on: HL-60(TB); experiment: NCI one-dose SRB growth assay; type: cell-based; settings: Homo sapiens; HL-60(TB) (Leukemia), 10^-5 M, 48 h; read-out: % Growth Inhibition (GI %)
[6] = tested on: MDA-MB-231/ATCC; experiment: NCI one-dose SRB growth assay; type: cell-based; settings: Homo sapiens; MDA-MB- 231/ATCC (Breast Cancer), 10^-5 M, 48 h; read-out: % Growth Inhibition (GI %)
Summary of the method: as §1

[7] = tested on: NCI-H226; experiment: NCI one-dose SRB growth assay; type: cell-based; settings: Homo sapiens; NCI-H226 (Non-Small Cell Lung Cancer), 10^-5 M, 48 h; read-out: % Growth Inhibition (GI %)
Summary of the method: as §1

[8] = tested on: NCI-H322M; experiment: NCI one-dose SRB growth assay; type: cell-based; settings: Homo sapiens; NCI-H322M (Non-Small Cell Lung Cancer), 10^-5 M, 48 h; read-out: % Growth Inhibition (GI %)
[9] = tested on: NCI-H460; experiment: NCI one-dose SRB growth assay; type: cell-based; settings: Homo sapiens; NCI-H460 (Non-Small Cell Lung Cancer), 10^-5 M, 48 h; read-out: % Growth Inhibition (GI %)
[10] = tested on: OVCAR-3; experiment: NCI one-dose SRB growth assay; type: cell-based; settings: Homo sapiens; OVCAR-3 (Ovarian Cancer), 10^-5 M, 48 h; read-out: % Growth Inhibition (GI %)
Summary of the method: as §1

[11] = tested on: OVCAR-5; experiment: NCI one-dose SRB growth assay; type: cell-based; settings: Homo sapiens; OVCAR-5 (Ovarian Cancer), 10^-5 M, 48 h; read-out: % Growth Inhibition (GI %)
Summary of the method: as §1

[12] = tested on: PRMI-8226; experiment: NCI one-dose SRB growth assay; type: cell-based; settings: Homo sapiens; PRMI-8226 (Leukemia), 10^-5 M, 48 h; read-out: % Growth Inhibition (GI %)
Summary of the method: as §1

[13] = tested on: SK-OV-3; experiment: NCI one-dose SRB growth assay; type: cell-based; settings: Homo sapiens; SK-OV-3 (Ovarian Cancer), 10^-5 M, 48 h; read-out: % Growth Inhibition (GI %)
Summary of the method: as §1

[14] = tested on: SR; experiment: NCI one-dose SRB growth assay; type: cell-based; settings: Homo sapiens; SR (Leukemia), 10^-5 M, 48 h; read-out: % Growth Inhibition (GI %)
Summary of the method: as §1

[15] = tested on: U251; experiment: NCI one-dose SRB growth assay; type: cell-based; settings: Homo sapiens, U-251; U251 (CNS Cancer), 10^-5 M, 48 h; read-out: % Growth Inhibition (GI %)
Summary of the method: as §1

[16] = tested on: UO-31; experiment: NCI one-dose SRB growth assay; type: cell-based; settings: Homo sapiens; UO-31 (Renal Cancer), 10^-5 M, 48 h; read-out: % Growth Inhibition (GI %)
Summary of the method: as §1

[17] = tested on: HL-60(TB); experiment: NCI five-dose SRB growth assay; type: cell-based; settings: Homo sapiens; HL-60(TB) (Leukemia), 48 h
[18] = tested on: NCI-H322M; experiment: NCI five-dose SRB growth assay; type: cell-based; settings: Homo sapiens; NCI-H322M (Non-Small Cell Lung Cancer), 48 h
[19] = tested on: HCT-116; experiment: NCI five-dose SRB growth assay; type: cell-based; settings: Homo sapiens; HCT-116 (Colon Cancer), 48 h
[20] = tested on: KM12; experiment: NCI five-dose SRB growth assay; type: cell-based; settings: Homo sapiens; KM12 (Colon Cancer), 48 h
[21] = tested on: SF-539; experiment: NCI five-dose SRB growth assay; type: cell-based; settings: Homo sapiens; SF-539 (CNS Cancer), 48 h
[22] = tested on: SNB-19; experiment: NCI five-dose SRB growth assay; type: cell-based; settings: Homo sapiens; SNB-19 (CNS Cancer), 48 h
[23] = tested on: MALME-3M; experiment: NCI five-dose SRB growth assay; type: cell-based; settings: Homo sapiens; MALME-3M (Melanoma), 48 h
[24] = tested on: SK-MEL-5; experiment: NCI five-dose SRB growth assay; type: cell-based; settings: Homo sapiens; SK-MEL-5 (Melanoma), 48 h
[25] = tested on: UACC-62; experiment: NCI five-dose SRB growth assay; type: cell-based; settings: Homo sapiens; UACC-62 (Melanoma), 48 h
[26] = tested on: OVCAR-8; experiment: NCI five-dose SRB growth assay; type: cell-based; settings: Homo sapiens; OVCAR-8 (Ovarian Cancer), 48 h
[27] = tested on: ACHN; experiment: NCI five-dose SRB growth assay; type: cell-based; settings: Homo sapiens; ACHN (Renal Cancer), 48 h
[28] = tested on: DU-145; experiment: NCI five-dose SRB growth assay; type: cell-based; settings: Homo sapiens; DU-145 (Prostate Cancer), 48 h
[29] = tested on: breast cancer; experiment: NCI five-dose SRB assay, subpanel average; settings: 48 h

## CCn1cc(C(=O)O)c(=O)c2cc(F)c(N3CCN(S(=O)(=O)c4cccc5ccccc45)CC3)cc21 [Compound 7a]
[1]
  inhibition at 10 µM: 75.7%
[2]
  inhibition at 10 µM: > 100%
[3]
  inhibition at 10 µM: 99.1%
[4]
  inhibition at 10 µM: 68.4%
[5]
  inhibition at 10 µM: > 100%
[6]
  inhibition at 10 µM: 76.1%
[7]
  inhibition at 10 µM: 78.1%
[8]
  inhibition at 10 µM: > 100%
[9]
  inhibition at 10 µM: 92%
[10]
  inhibition at 10 µM: > 100%
[11]
  inhibition at 10 µM: 84.5%
[12]
  inhibition at 10 µM: 93.5%
[13]
  inhibition at 10 µM: 84.4%
[14]
  inhibition at 10 µM: 97.8%
[15]
  inhibition at 10 µM: 85.8%
[16]
  inhibition at 10 µM: > 100%
[17]
  GI50: 2580 nM
[18]
  GI50: 2600 nM
[19]
  GI50: 3880 nM
[20]
  GI50: 2960 nM
[21]
  GI50: 2430 nM
[22]
  GI50: 3470 nM
[23]
  GI50: 2830 nM
[24]
  GI50: 2240 nM
[25]
  GI50: 2250 nM
[26]
  GI50: 3090 nM
[27]
  GI50: 2880 nM
[28]
  GI50: 3970 nM
[29]; Homo sapiens, read-out: GI50 (median growth inhibitory)
  GI50: 2810 nM
[29]; Homo sapiens, read-out: LC50 (median lethal)
  CC50: > 100000 nM
[29]; average over breast cancer subpanel, five concentrations
  TGI (total growth inhibitory): 38490 nM
